The target of one data set is T1, human DOR (Homo sapiens, UniProt P41143).
T1 construct: host or cells: CHO (CHO-hDOR), cell membranes
Type of data set: binding.

For data set [1] the following is noted: rat, in vivo; cited from earlier work.
For data set [2], the target named is T2, human MOR (Homo sapiens, UniProt P35372). In words: biochemical. It is filed as biochemical. The conditions noted are these: for agonist character at the MOR: CHO-hMOR; for G protein activation %stim: percentage stimulation relative to DAMGO. Also noted: host or cells: CHO (CHO-hMOR), cell membranes.
T2 sequence (P35372 whole entry): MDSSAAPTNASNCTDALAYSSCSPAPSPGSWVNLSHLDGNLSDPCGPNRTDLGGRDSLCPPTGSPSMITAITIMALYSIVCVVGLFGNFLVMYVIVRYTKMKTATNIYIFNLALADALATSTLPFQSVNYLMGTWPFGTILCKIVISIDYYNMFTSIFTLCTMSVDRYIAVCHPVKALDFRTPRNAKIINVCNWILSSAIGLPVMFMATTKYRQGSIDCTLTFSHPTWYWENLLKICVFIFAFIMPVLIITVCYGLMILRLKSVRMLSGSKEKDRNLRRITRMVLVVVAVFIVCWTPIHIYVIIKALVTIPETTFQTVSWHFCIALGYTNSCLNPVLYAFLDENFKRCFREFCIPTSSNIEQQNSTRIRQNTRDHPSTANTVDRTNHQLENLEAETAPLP
In another data set the target is T3, human KOR (Homo sapiens, UniProt P41145).
T3 construct: host or cells: CHO (CHO-hKOR), cell membranes
T3 sequence (P41145 whole entry): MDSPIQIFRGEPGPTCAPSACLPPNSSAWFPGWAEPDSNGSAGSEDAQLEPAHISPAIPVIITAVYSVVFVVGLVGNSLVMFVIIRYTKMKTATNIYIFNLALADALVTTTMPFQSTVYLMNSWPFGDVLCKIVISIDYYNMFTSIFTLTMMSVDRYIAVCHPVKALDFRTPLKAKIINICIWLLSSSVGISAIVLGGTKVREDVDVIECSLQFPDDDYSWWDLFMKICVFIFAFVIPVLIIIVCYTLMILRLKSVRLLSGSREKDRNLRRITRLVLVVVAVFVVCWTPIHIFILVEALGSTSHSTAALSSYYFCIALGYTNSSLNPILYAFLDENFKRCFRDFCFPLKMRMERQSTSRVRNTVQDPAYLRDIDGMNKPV
Type of data set: binding.

Data set [3] has as its target T2, human MOR. In words: biochemical. Type of data set: binding. Also noted: host or cells: CHO (CHO-hMOR), cell membranes.
The target in data set [4] is T2, human MOR. Type of data set: cell-based. Also on record: host or cells: U2OS (PathHunter U2OS-hMOR-βarrestin2). Particulars: PathHunter, U2OS-hMOR.
The subject of data set [5] is acetic acid-induced writhing. In words: acetic acid-induced writhing test. It is filed as in vivo, mice. Particulars: for reduction in the number of writhes / times less effective than morphine (0.5 mg/kg) at equianalgesic doses: mice; for reduction in the number of writhes: 30 min after administration; for antiwrithing response after naltrexone pretreatment: naltrexone 1 mg/kg s.c. 10 min before agonist; for times less effective than morphine (0.5 mg/kg) at equianalgesic doses: writhing assay, s.c. On the procedure: Male CD1 mice (30–35 g, 7–8 weeks old) were obtained from the Center of Biomodels and Experimental Medicine (CBEM) (Innsbruck, Austria). Mice were group-housed in a temperature-controlled room with a 12 h light/dark cycle and with free access to food and water. All animal studies were conducted in accordance with ethical guidelines and animal welfare standards according to Austrian regulations for animal research and were approved by the Committee of Animal Care of the Austrian Federal Ministry of Science and Research. Test compounds or vehicle were administered by s.c. route in a volume of 10 µL/1 g of body weight.
Writhing was induced in mice by intraperitoneal (i.p.) injection of a 0.6% acetic acid aqueous solution[26]. Drugs or control (vehicle) were s.c. administered, and after 25 min (5 min prior to testing), each animal received i.p. acetic acid solution. Each mouse was placed in individual transparent Plexiglas chambers, and the number of writhes was counted during a 10 min observation period. […] For the antagonism study, naltrexone (1 mg/kg) was s.c. administered 10 min before the opioid agonist, and writhing as assessed as described above. Each experimental group included five to six animals.

Another data set has as its system dopamine D1 receptor. Also noted: method as in PMID 18830156, PMID 30308941. The conditions noted are these: cell-based functional assays; cited from earlier work.

These results are taken from paper PMC7427800 (Scientific Reports, 2020).

Where two headings read alike, the source gives them in different places.

T1 sequence (P41143 whole entry): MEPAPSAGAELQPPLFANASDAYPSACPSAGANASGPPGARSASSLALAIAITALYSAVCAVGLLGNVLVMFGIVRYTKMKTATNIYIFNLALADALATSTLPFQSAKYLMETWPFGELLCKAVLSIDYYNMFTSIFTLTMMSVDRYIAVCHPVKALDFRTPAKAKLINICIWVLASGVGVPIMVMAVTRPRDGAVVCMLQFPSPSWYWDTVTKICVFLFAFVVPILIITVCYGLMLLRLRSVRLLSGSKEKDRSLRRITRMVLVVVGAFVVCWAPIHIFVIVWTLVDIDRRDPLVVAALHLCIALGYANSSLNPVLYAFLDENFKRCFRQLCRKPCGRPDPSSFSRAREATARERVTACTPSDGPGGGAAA

On to `COc1cc2c(cc1OC)C1C(C)c3ccc(OC)c(OC)c3CN1CC2` (centres unmarked) [Corydaline (2), corydaline], for which the “alterations in general behavior (locomotor activity, sedation)” value (mouse, in vivo) is “no major alterations in locomotor activity and no sedation”. In addition, the “specific binding to the human DOR” value on human DOR is “did not specifically bind”. In data set [1], the “blood–brain barrier crossing” value is given as “can effectively cross the blood–brain barrier”. Also, the EC50 at human MOR [2] was 1500 ± 440 nM. On human MOR [2] ([35S]GTPγS binding), the “agonist character at the MOR” value is recorded as “full agonists” and the “G protein activation %stim” value was 104 ± 6%. The “specific binding to the human KOR” value at human KOR is on record as “did not specifically bind”. In addition, the inhibitory constant (Ki) at human MOR [3] came out at 1230 ± 290 nM. In addition, the “β-arrestin2 recruitment upon activation of the MOR” value at human MOR [4] is “failed to induce β-arrestin2 recruitment”. In addition, in [5] (10 mg/kg s.c.), the “reduction in the number of writhes” value is given as 59%. In addition, in data set [5], the “antiwrithing response after naltrexone pretreatment” value is given as “antagonized” and the “times less effective than morphine (0.5 mg/kg) at equianalgesic doses” value is roughly 20 times. Moreover, the “activity at the dopamine D1 receptor” value in the data set on dopamine D1 receptor is “antagonist activity”.

As to `COc1cc2c3c(c1O)-c1c(ccc(OC)c1OC)C[C@@H]3N(C)CC2` [Corydine (1), corydine], the “alterations in general behavior (locomotor activity, sedation)” value (mice, s.c., tested doses (5 mg/kg corydine, 10 mg/kg corydaline)) was “no major alterations in locomotor activity and no sedation”. Also, the “specific binding to the human DOR” value on human DOR is listed as “did not specifically bind”. At human MOR [2], this molecule showed an EC50 of 510 ± 110 nM. At human MOR [2] ([35S]GTPγS binding), the “agonist potency, times greater than corydaline (2)” value was “about 3 times”; the “agonist potency, times less potent than DAMGO” value amounted to 34 times; the “agonist character at the MOR” value is on record as “full agonists”; the “G protein activation %stim” value was determined as 102 ± 6%. For the same molecule, on human KOR, the “specific binding to the human KOR” value is “did not specifically bind”. The molecule further gave a Ki on human MOR [3] of 2820 ± 610 nM. Also, the “β-arrestin2 recruitment upon activation of the MOR” value at human MOR [4] is listed as “failed to induce β-arrestin2 recruitment”. For the same molecule, in [5] (5 mg/kg s.c.), the “reduction in the number of writhes” value is recorded as 51%. Moreover, in data set [5], the “antiwrithing response after naltrexone pretreatment” value is recorded as “antagonized” and the “times less effective than morphine (0.5 mg/kg) at equianalgesic doses” value is “ca. 10 times”.

Turning to `C[C@@H](NC(=O)[C@@H](N)Cc1ccc(O)cc1)C(=O)NCC(=O)N(C)[C@@H](Cc1ccccc1)C(=O)NCCO` [DAMGO, reference compound], the “G protein activation %stim” value on human MOR [2] ([35S]GTPγS binding) was 100%. Besides, the “β-arrestin2 recruitment upon activation of the MOR” value at human MOR [4] was “effectively recruited β-arrestin2”. Further, the β-arrestin2 recruitment %stim at human MOR [4] (relative to DAMGO, – denotes no measurable activity) stood at 100%.
